According to patent US11254690B2, “PTEFb inhibiting macrocyclic compounds” (BAYER AKTIENGESELLSCHAFT, priority 2017, dated 2022):

Legend:
Format in all cases: cell-based
[1] = tested on: HeLa cells; experiment: Proliferation assay, HeLa; conditions: Homo sapiens, 96 h, 4 days, crystal violet, read-out: Inhibition of HeLa cell proliferation IC50
Method: (§1) Cultivated tumour cells (HeLa, human cervical tumour cells, ATCC CCL-2; NCI-H460, human non-small cell lung carcinoma cells, ATCC HTB-177; DU 145, hormone-independent human prostate carcinoma cells, ATCC HTB-81; HeLa-MaTu-ADR, multidrug-resistant human cervical carcinoma cells, EPO-GmbH Berlin; Caco-2, human colorectal carcinoma cells, ATCC HTB-37; B16F10, mouse melanoma cells, ATCC CRL-6475) were plated at a density of 5,000 cells/well (DU145, HeLa-MaTu-ADR), 3,000 cells/well (NCI-H460, HeLa), 1,500 cells/well (Caco-2), or 1,000 cells/well (B16F10) in a 96-well multititer plate in 200 μL of their respective growth medium supplemented 10% fetal calf serum. After 24 hours, the cells of one plate (zero-point plate) were stained with crystal violet (see below), while the medium of the other plates was supplemented with the test substances in various concentrations (0 μM, as well as in the range of 0.0001-10 μM; the final concentration of the solvent dimethyl sulfoxide was adjusted to 0.1%) using a Hewlett-Packard HP D300 Digital Dispenser. The cells were incubated for 4 days in the presence of test substances. Cell proliferation was determined by staining the cells with crystal violet: the cells were fixed by adding 20 μl/measuring point of an 11% glutaric aldehyde solution for 15 minutes at room temperature. After three washing cycles of the fixed cells with water, the plates were dried at room temperature. The cells were stained by adding 100 μl/measuring point of a 0.1% crystal violet solution (pH 3.0). After three washing cycles of the stained cells with water, the plates were dried at room temperature. The dye was dissolved by adding 100 μl/measuring point of a 10% acetic acid solution. The extinction was determined by photometry at a wavelength of 595 nm. The change of cell number, in percent, was calculated by normalization of the measured values to the extinction values of the zero-point plate (=0%) and the extinction of the untreated ([…]) cells (=100%). The IC50 values (inhibitory concentration at 50% of maximal effect) were determined by means of a 4 parameter fit. A2780 human ovarian carcinoma cells (ECACC #93112519) and non-adherent MOLM-13 human acute myeloid leukemia cells (DSMZ ACC 554) were seeded at a density of 3,000 cell/well (A2780) or 5,000 cells/well (MOLM-13) in a 96-well multititer plate in 150 μL of growth medium supplemented 10% fetal calf serum. After 24 hours, cell viability of one plate (zero-point plate) was determined with the Cell Titre-Glo Luminescent Cell Viability Assay (Promega), while the medium of the other plates was supplemented with the test substances in various concentrations (0 μM, as well as in the range of 0.0001-10 μM; the final concentration of the solvent dimethyl sulfoxide was adjusted to 0.1%) using a Hewlett-Packard HP D300 Digital Dispenser. Cell viability was assessed after 72-hour exposure with the Cell Titre-Glo Luminescent Cell Viability Assay (Promega). IC50 values (inhibitory concentration at 50% of maximal effect) were determined by means of a 4 parameter fit on measurement data which were normalized to vehicle (DMSO) treated cells (=100%) and measurement readings taken immediately before compound exposure (=0%).

[2] = tested on: B16F10 cells; experiment: Proliferation assay, B16F10; conditions: Mus musculus, B16-F10, 96 h; 4 days, crystal violet; read-out: Inhibition of B16F10 cell proliferation IC50
Method: as §1

[3] = tested on: MOLM-13 cells; experiment: Proliferation assay, MOLM-13; conditions: Homo sapiens, 72-hour exposure, Cell Titre-Glo, read-out: Inhibition of MOLM-13 cell proliferation IC50
Method: as §1

Structure (SMILES) | IC50 [1] | IC50 [2] | IC50 [3]
CS(=N)(=O)Cc1cc2nc(c1)OCCCCOc1cc(ccc1F)-c1cc(ncc1F)N2 (racemic) [Example 2, (rac)-3,20-difluoro-10-[(S-methylsulfonimidoyl)methyl]-13,18-dioxa-5,7,24-triazatetracyclo[17.3.1.1^2,6.1^8,12]pentacosa-1(23),2(25),3,5,8(24),9,11,19,21-nonaene] | 90 nM | 110 nM | 27 nM
CC(C)(C)OC(=O)N=S(C)(=O)Cc1cc2cc(c1)OCCCCOc1cc(ccc1F)-c1nc(ncc1F)N2 (racemic) [Example 3, (rac)-tert-butyl [{[3,20-difluoro-13,18-dioxa-5,7,25-triazatetracyclo[17.3.1.1^2,6.1^8,12]pentacosa-1(23),2(25),3,5,8(24),9,11,19,21-nonaen-10-yl]methyl}(methyl)oxido-λ^6-sulfanylidene]carbamate] | 244 nM | 270 nM | 108 nM
CS(=N)(=O)Cc1cc2cc(c1)OCCCCOc1cc(ccc1F)-c1nc(ncc1F)N2 (racemic) [Example 4, (rac)-3,20-difluoro-10-[(S-methylsulfonimidoyl)methyl]-13,18-dioxa-5,7,25-triazatetracyclo[17.3.1.1^2,6.1^8,12]pentacosa-1(23),2(25),3,5,8(24),9,11,19,21-nonaene] | 150 nM | 176 nM | 20 nM
CC(C)(C)OC(=O)N=S(C)(=O)Cc1cc2cc(c1)OCCCCCOc1cc(ccc1F)-c1nc(ncc1F)N2 (racemic) [Example 5, (rac)-tert-butyl [{[3,21-difluoro-13,19-dioxa-5,7,26-triazatetracyclo[18.3.1.1^2,6.1^8,12]hexacosa-1(24),2(26),3,5,8(25),9,11,20,22-nonaen-10-yl]methyl}(methyl)oxido-λ^6-sulfanylidene]carbamate] | 964 nM | 993 nM | 228 nM
CS(=N)(=O)Cc1cc2cc(c1)OCCCCCOc1cc(ccc1F)-c1nc(ncc1F)N2 (racemic) [Example 6, (rac)-3,21-difluoro-10-[(S-methylsulfonimidoyl)methyl]-13,19-dioxa-5,7,26-triazatetracyclo[18.3.1.1^2,6.1^8,12]hexacosa-1(24),2(26),3,5,8(25),9,11,20,22-nonaene] | 199 nM | 171 nM | 140 nM
CS(=N)(=O)Cc1cc2cc(c1)OCCCCOc1c(F)ccc(c1F)-c1nc(ncc1F)N2 (racemic) [Example 8, (rac)-3,20,23-trifluoro-10-[(S-methylsulfonimidoyl)methyl]-13,18-dioxa-5,7,25-triazatetracyclo[17.3.1.1^2,6.1^8,12]pentacosa-1(23),2(25),3,5,8(24),9,11,19,21-nonaene] | 177 nM | 224 nM | 45 nM
CS(=N)(=O)Cc1cc2cc(c1)OCCCOc1cc(ccc1F)-c1nc(ncc1F)N2 (racemic) [Example 10, (rac)-3,19-difluoro-10-[(S-methylsulfonimidoyl)methyl]-13,17-dioxa-5,7,24-triazatetracyclo[16.3.1.1^2,6.1^8,12]tetracosa-1(22),2(24),3,5,8(23),9,11,18,20-nonaene] | 128 nM | 209 nM | 33 nM
